Data reported in patent US20210255193A1, “LYSINE REACTIVE PROBES AND USES THEREOF” (The Scripps Research Institute, priority 2017, published 2021).

Tests used:
Experiment in all cases: competitive isoTOP-ABPP
Type in all cases: binding
[1] = target: T1, IFIT3 Interferon-induced protein with tetratricopeptide (Homo sapiens, UniProt O14879)
T1 construct: isoTOP-ABPP experiments performed in cell lysates (in vitro); endogenous in cells; host or cells: MDA-MB-231 soluble lysate
T1 sequence (O14879 1-490): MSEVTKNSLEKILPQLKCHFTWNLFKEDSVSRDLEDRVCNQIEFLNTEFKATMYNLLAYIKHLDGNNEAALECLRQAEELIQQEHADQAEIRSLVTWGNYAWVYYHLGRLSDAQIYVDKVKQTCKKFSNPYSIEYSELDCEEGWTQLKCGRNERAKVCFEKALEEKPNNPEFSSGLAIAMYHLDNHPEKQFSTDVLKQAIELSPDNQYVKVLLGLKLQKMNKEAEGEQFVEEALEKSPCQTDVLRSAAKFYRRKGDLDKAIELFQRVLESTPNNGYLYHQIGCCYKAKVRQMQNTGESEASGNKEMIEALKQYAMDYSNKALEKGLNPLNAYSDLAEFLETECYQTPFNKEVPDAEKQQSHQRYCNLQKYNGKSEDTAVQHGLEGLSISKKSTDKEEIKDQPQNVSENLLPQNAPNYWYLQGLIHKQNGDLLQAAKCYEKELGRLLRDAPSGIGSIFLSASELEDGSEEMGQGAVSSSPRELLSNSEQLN
How it was run: (§1)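 Fragments at 50 μM (activated esters) or 100 μM (guanidinylating agents) were incubated with 0.5 ml lysate before probe labeling. After 0.1 mM STP-alkyne for 1 h, samples were clicked to isotopically distinct TEV tags, and R taken as DMSO-over-compound MS1 peak-area ratio.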

[2] = target: T2, LDHB L-lactate dehydrogenase B chain (Homo sapiens, UniProt P07195)
T2 construct: isoTOP-ABPP experiments performed in cell lysates (in vitro); endogenous in cells; host or cells: MDA-MB-231 soluble lysate
T2 sequence (P07195 whole entry): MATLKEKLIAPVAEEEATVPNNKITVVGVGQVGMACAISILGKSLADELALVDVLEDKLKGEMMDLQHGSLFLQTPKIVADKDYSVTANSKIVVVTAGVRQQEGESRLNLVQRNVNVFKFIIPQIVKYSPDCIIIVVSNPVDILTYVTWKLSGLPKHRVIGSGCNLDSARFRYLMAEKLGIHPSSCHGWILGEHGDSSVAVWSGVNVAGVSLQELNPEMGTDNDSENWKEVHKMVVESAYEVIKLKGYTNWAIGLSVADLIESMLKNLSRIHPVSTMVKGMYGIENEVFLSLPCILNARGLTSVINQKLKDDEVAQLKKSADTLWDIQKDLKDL
How it was run: as §1

[3] = target: T3, NT5DC1 5-nucleotidase domain-containing protein 1 (Homo sapiens, UniProt Q5TFE4)
T3 construct: isoTOP-ABPP experiments performed in cell lysates (in vitro); endogenous in cells; host or cells: soluble proteome of human cancer cell lines (MDA-MB-231; Ramos and Jurkat also prepared)
T3 sequence (Q5TFE4 1-455): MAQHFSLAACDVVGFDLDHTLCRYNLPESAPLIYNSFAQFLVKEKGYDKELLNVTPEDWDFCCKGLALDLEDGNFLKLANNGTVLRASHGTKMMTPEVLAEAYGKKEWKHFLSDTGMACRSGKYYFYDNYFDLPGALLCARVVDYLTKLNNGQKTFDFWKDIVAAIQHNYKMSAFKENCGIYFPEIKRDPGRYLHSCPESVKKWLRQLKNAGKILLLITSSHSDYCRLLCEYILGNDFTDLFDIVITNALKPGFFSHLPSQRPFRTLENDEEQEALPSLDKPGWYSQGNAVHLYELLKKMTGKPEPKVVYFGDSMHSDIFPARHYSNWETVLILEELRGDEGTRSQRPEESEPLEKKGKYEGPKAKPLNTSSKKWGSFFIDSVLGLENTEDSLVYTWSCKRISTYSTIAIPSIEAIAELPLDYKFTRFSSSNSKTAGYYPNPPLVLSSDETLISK
How it was run: as §1

O=C(ON1C(=O)CCC1=O)c1cc(C(F)(F)F)cc(C(F)(F)F)c1 [fragment 46, 3,5-Bis(trifluoromethyl)benzoic acid NHS ester]
isoTOP-ABPP ratio, lysine O14879_K148 ([1]; 50 uM_231_sol_in vitro): 2.2
isoTOP-ABPP ratio, lysine P07195_K82 ([2]; 50 uM_231_sol_in vitro): 0.7
isoTOP-ABPP ratio, lysine P07195_K244 ([2]; 50 uM_231_sol_in vitro): 0.8
isoTOP-ABPP ratio, lysine Q5TFE4_K123 ([3]; 50 uM_231_sol_in vitro): 20.0

CC(C)(C)OC(=O)N=C(NC(=O)OC(C)(C)C)n1cccn1 [fragment 50, reference compound]
isoTOP-ABPP ratio, lysine O14879_K148 ([1]; 100 uM_231_sol_in vitro): 1.4
isoTOP-ABPP ratio, lysine P07195_K82 ([2]; 100 uM_231_sol_in vitro): 0.9
isoTOP-ABPP ratio, lysine P07195_K244 ([2]; 100 uM_231_sol_in vitro): 1.1
isoTOP-ABPP ratio, lysine Q5TFE4_K123 ([3]; 100 uM_231_sol_in vitro): 1.1
